Like-named read-outs stand apart in the source and are kept apart here.
Target: T1, hFPR1 (Homo sapiens, UniProt P21462)
T1 construct: expressed in transfected cells
T1 sequence (P21462 1-350): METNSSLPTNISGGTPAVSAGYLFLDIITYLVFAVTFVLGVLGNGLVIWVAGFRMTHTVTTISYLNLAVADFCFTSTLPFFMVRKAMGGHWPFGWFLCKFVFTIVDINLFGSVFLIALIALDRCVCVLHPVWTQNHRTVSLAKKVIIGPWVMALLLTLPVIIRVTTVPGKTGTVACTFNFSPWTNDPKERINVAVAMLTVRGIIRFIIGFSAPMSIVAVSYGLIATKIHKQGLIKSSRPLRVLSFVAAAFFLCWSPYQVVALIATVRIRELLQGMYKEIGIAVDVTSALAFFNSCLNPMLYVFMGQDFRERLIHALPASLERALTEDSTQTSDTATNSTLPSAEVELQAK
Experiment: [Ca2+]i mobilization in FlpIn-CHO cells stably expressing hFPR1
Type: cell-based
Parameters: Calcium Rmax: unit not given here
Conditions: for Emax: Flp-In-CHO
From the text: cDNDA construct and generation of stable cell lines: cDNA in pcDNA3.1^+ encoding the human formyl peptide receptors (FPR) subtypes, hFPR1, hFPR2 and hFPR3 was obtained from Invitrogen. The sequences for 3 hFPR receptors were amplified by PCR and cloned into the Gateway entry vector, pDONR202™, using the BP clonase enzyme mix, according to the manufactures' instructions (Invitrogen Inc, Carlsbad, Calif., USA). All hFPR receptors constructs in pDONR201™ were subsequently transfected into the pEF5/FRT/V5/dest vector using the LR clonase enzyme mix (Invitrogen). Receptor constructs (pEF5/FRT/V5/dest) were used to transfect FIp-In CHO cells as described previously (Valant C et al., PNAS, 2014). Cells were selected using 500 μg/mL hydromycin to generate cell lines stably expressing each receptor construct. Cells were maintained and cultured in high glucose DMEM supplemented with 10% FBS, 16 mM HEPES and 500 μg/mL hydromycin at 37° C. under a humidified atmosphere containing 5% CO2.
In the various assays described below, cells were plated into 96-well transparent cell culture plates at 4×10^4 cells per well, cultured overnight in serum-free media at 37° C. in 5% CO2.
Intracellular calcium mobilization: Intracellular calcium mobilization was assayed as described previously (Keov, P et al., 2014). Briefly, cells were washed once using HEPES buffered saline (HBS) solution [150 mM NaCl, 2.2 mM CaCl2, 2.6 mM KCl, 1.2 mM MgCl2, 10 mM HEPEs, 10 mM D-Glucose, 0.5% (w/v) bovine serum albumin (BSA) and 4 mM probenecid] at pH 7.4, then treated with Fluo-4-AM (1 μM, in HBS/BSA/probenecid) for 60 min at 37° C. in 5% CO2 in the dark. Cells were then further washed and placed in HBS/BSA/probenecid solution for ligation addition and assay using the FLEXstation 3 plate reader (Molecular Devices, Sunnyvale, Calif.). For all experiments, peak change in fluorescence signal was normalized to the cellular response to 100 μM ATP, which was used as an internal positive control.
Data analysis: All data were analysed using GraphPad Prism 6.0 (GraphPad Software, San Deigo, Calif., USA). Where appropriate, concentration-response curves were fitted to derive the maximal agonist effect (Emax), and the ligand potency estimate (pEC50), where Emax is the maximal possible response of the system (not the agonist), basal is the basal level of response in the absence of agonist, and pEC50 is the negative logarithm of the agonist concentration that gives a response halfway between Emax and basal.
In the present study, FIp-IN CHO cells and Gateway plasmid were obtained from Invitrogen Inc (Carlsbad, Calif., USA). The sequences for all 3 known human FPRs (hFPR1, hFPR2 and hFPR3) were amplified by PCR and cloned into the Gateway entry vector, pDONR202TM, using the BP clonase enzyme mix, according to the manufacturers' instructions. The hFPR pDONR201TM constructs were subsequently transfected into the pEF5/FRT/V5/dest vector using the LR clonase enzyme mix (Invitrogen). Receptor constructs (pEF5/FRT/V5/dest) were used to transfect FIp-IN CHO cells, as described previously (Valant et al. 2014). Cells were selected using 500 μg/mL hydromycin to generate cell lines stably expressing each human receptor construct. Cells were maintained and cultured in high glucose Dulbecco's modified eagle medium (DMEM) supplemented with 10% fetal bovine serum (FBS, from JRH Biosciences, Lenexa, Kans., USA) and 500 μg/mL hydromycin B (Invitrogen Inc) at 37° C. under a humidified atmosphere containing 5% CO2. Cell were plated into 96-well transparent cell culture plates at 4×10^4 cells per well, cultured overnight in serum-free media at 37° C. in 5% CO2.
(ii) Intracellular Ca2+ mobilization: Intracellular Ca2+ mobilization was determined in stably-transfected recombinant hFPR CHO cells, as described previously (Valant et al. 2014).

[1] = Table 9, read-out: potency (pEC50) Ca^2+i, hFPR1-FlpInCHO cells in vitro (converted)

SMILES | Emax (Table 1, percentage of [Ca^2+]i mobilization elicited by ATP, read-out: Emax (%), [Ca^2+]i mobilization, hFPR1-Flpln-CHO) [%] | Emax (Table 8, percent of response elicited by ATP, read-out: Emax, [Ca^2+]i mobilization, hFPR1-Flpln-CHO) [%] | EC50 (Table 1, read-out: pEC50, [Ca^2+]i mobilization, hFPR1-Flpln-CHO (converted)) [nM] | ΔLog(τ/KA), [Ca^2+]i mobilization, hFPR1-Flpln-CHO (Table 8, normalized transduction coefficient, reference agonist Cmpd43) | EC50 (Table 8, read-out: pEC50, [Ca^2+]i mobilization, hFPR1-Flpln-CHO (converted)) [nM] | Log(τ/KA), [Ca^2+]i mobilization, hFPR1-Flpln-CHO (Table 8, transduction coefficient) | EC50 [1] [nM] | Calcium Rmax (Table 10, receptor not given, ND = Not detectable) | EC50 (Table 10, receptor not given, ND = Not detectable, read-out: Calcium pEC50 (converted)) [nM]
CC(C)C1C(NC(=O)Nc2ccc(Cl)cc2)C(=O)N(c2ccccc2)N1C (stereo not shown) [BIDI-002] | 43 ± 6 | 43 ± 6 | 11 | 0.0 | 10 | 8.0 ± 0.2 | 11 |  | 
Cc1cc(Cc2cccnc2)c(=O)n(CC(=O)Nc2ccc(Cl)cc2)n1 [MIPS-0010396] |  |  |  |  |  |  | 33100 | 22 ± 2 | 33100

— patent US10328075B2, “Method of treatment and compounds for use therein” (Baker Heart and Diabetes Institute, priority 2015, dated 2019)
